The results in this text go back to ChEMBL document CHEMBL1649440, “Impact of sarA on antibiotic susceptibility of Staphylococcus aureus in a catheter-associated in vitro model of biofilm formation” (2009).

The subject of assay [1] is Staphylococcus aureus. In words: Antimicrobial activity against Staphylococcus aureus isolate UAMS-1 by Etest method. The assay is classed as functional.
Assay [2] has as its system Staphylococcus aureus. In words: Antimicrobial activity against Staphylococcus aureus isolate UAMS-929 harboring sarA gene mutant by Etest method. The assay is classed as functional.

Values after ≈ are worked out from the molar mass of the structure shown.

By MIC is commonly meant the lowest concentration found to suppress growth. Regarding `CCCCCCCCCC(=O)N[C@@H](Cc1c[nH]c2ccccc12)C(=O)N[C@H](CC(N)=O)C(=O)N[C@@H](CC(=O)O)C(=O)N[C@@H]1C(=O)NCC(=O)N[C@@H](CCCN)C(=O)N[C@@H](CC(=O)O)C(=O)N[C@H](C)C(=O)N[C@@H](CC(=O)O)C(=O)NCC(=O)N[C@H](CO)C(=O)N[C@@H]([C@H](C)CC(=O)O)C(=O)N[C@@H](CC(=O)c2ccccc2N)C(=O)O[C@@H]1C`, the MIC in the assay with Staphylococcus aureus [1] and in the assay with Staphylococcus aureus [2] was 0.75 µg/mL (≈ 0.463 µM) in each case.
As to `CC(=O)NC[C@H]1CN(c2ccc(N3CCOCC3)c(F)c2)C(=O)O1` [LINEZOLID], the MIC in the assay with Staphylococcus aureus [1] and against Staphylococcus aureus [2] was 1 µg/mL (≈ 2.96 µM) in each case.
Regarding `CN[C@H](CC(C)C)C(=O)N[C@H]1C(=O)N[C@@H](CC(N)=O)C(=O)N[C@H]2C(=O)N[C@H]3C(=O)N[C@H](C(=O)N[C@H](C(=O)O)c4cc(O)cc(O)c4-c4cc3ccc4O)[C@H](O)c3ccc(c(Cl)c3)Oc3cc2cc(c3O[C@@H]2O[C@H](CO)[C@@H](O)[C@H](O)[C@H]2O[C@H]2C[C@](C)(N)[C@H](O)[C@H](C)O2)Oc2ccc(cc2Cl)[C@H]1O` [VANCOMYCIN], the MIC in the assay on Staphylococcus aureus [1] and against Staphylococcus aureus [2] was 1.5 µg/mL (≈ 1.04 µM) throughout.
